According to ChEMBL document CHEMBL5108059, “Discovery of 2-Methyl-2-(4-(2-methyl-8-(1H-pyrrolo[2,3-b]pyridin-6-yl)-1H-naphtho[1,2-d]imidazol-1-yl)phenyl)propanenitrile as a Novel PI3K/mTOR Inhibitor with Enhanced Antitumor Efficacy In Vitro and In Vivo” (J Med Chem, 2022):

Legend:
[1] = tested on: HT-29; experiment: Antiproliferative activity against human HT-29 cells with PIK3CA mutation assessed as inhibition of cell growth incubated for 48 to 72 hrs by MTT assay; assay type: functional, cell-based
[2] = tested on: HCT-15; experiment: Antiproliferative activity against human HCT-15 cells with PIK3CA mutation assessed as inhibition of cell growth incubated for 48 to 72 hrs by MTT assay; assay type: functional, cell-based
[3] = tested on: NCI-H3122; experiment: Antiproliferative activity against human NCI-H3122 cells assessed as inhibition of cell growth incubated for 48 to 72 hrs by MTT assay; assay type: functional, cell-based
[4] = tested on: HeLa; experiment: Antiproliferative activity against human HeLa cells assessed as inhibition of cell growth incubated for 48 to 72 hrs by MTT assay; assay type: functional, cell-based
[5] = tested on: SW-620; experiment: Antiproliferative activity against human SW620 cells assessed as inhibition of cell growth incubated for 48 to 72 hrs by MTT assay; assay type: functional, cell-based
[6] = tested on: NCI-H446; experiment: Antiproliferative activity against PTEN-null human NCI-H446 cells assessed as inhibition of cell growth incubated for 48 to 72 hrs by MTT assay; assay type: functional, cell-based
[7] = tested on: HeLa; experiment: Antitumor activity against human HeLa cells xenografted in BALB/c nude mouse assessed as tumor growth inhibition at 30 mg/kg, IG administered daily for 30 days and measured every 2 days relative to control; assay type: functional; details: po, 720 h, time 30 day, read-out: TGI
[8] = tested on: SW-620; experiment: Antitumor activity against human SW620 cells xenografted in BALB/c nude mouse assessed as tumor growth inhibition at 30 mg/kg, IG administered daily for 30 days and measured every 2 days relative to control; assay type: functional; details: SW-620, po, 720 h, time 30 day, read-out: TGI
[9] = target: Serine/threonine-protein kinase mTOR (Homo sapiens, UniProt P42345); experiment: Inhibition of N-terminal FLAG-tagged recombinant human mTOR (1362 to end residue) using ULight-4EBP1 peptide as substrate incubated for 30 mins in presence of ATP by Lance ultra assay
[10] = target: Phosphatidylinositol 4,5-bisphosphate 3-kinase catalytic subunit alpha isoform (Homo sapiens, UniProt P42336); experiment: Inhibition of PI3Kalpha (unknown origin) using PIP2 as substrate incubated for 1 hr in presence of ATP by Kinase Glo luminescence assay
Sequence of Phosphatidylinositol 4,5-bisphosphate 3-kinase catalytic subunit alpha isoform (P42336 whole entry, canonical isoform): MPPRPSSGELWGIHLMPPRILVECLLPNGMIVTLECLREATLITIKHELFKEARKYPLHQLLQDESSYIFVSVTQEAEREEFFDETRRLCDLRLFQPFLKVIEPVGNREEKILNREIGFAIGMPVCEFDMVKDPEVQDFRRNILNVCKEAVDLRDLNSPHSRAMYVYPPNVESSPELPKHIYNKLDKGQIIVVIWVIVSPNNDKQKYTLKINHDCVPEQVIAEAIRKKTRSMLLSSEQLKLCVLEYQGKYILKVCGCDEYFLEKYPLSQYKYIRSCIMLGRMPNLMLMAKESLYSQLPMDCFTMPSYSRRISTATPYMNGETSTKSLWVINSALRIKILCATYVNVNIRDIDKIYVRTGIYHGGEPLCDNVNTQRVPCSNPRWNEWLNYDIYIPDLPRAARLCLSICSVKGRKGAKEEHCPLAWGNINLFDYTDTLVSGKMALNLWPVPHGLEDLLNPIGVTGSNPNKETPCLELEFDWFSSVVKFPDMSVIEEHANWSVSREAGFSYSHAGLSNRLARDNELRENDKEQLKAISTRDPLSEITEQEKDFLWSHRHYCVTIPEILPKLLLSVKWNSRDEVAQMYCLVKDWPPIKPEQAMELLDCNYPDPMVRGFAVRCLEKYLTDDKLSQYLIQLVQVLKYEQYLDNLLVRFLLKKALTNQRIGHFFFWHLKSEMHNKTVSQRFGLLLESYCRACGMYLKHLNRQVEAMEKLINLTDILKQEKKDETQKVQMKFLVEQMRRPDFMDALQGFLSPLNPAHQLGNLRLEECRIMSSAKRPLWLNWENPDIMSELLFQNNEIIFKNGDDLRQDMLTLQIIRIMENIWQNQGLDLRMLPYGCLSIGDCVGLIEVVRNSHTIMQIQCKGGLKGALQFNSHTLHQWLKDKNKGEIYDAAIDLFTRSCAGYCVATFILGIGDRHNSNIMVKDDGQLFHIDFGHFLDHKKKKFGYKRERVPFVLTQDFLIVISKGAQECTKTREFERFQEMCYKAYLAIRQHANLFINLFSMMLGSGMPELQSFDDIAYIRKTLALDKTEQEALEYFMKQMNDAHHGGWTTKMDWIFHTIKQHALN

[11] = target: T1, Phosphatidylinositol 4,5-bisphosphate 3-kinase catalytic subunit delta isoform (Homo sapiens, UniProt O00329); experiment: Inhibition of PI3Kdelta (unknown origin) using PIP2 as substrate incubated for 2 hrs in presence of ATP by Kinase Glo luminescence assay
T1 sequence (O00329 whole entry): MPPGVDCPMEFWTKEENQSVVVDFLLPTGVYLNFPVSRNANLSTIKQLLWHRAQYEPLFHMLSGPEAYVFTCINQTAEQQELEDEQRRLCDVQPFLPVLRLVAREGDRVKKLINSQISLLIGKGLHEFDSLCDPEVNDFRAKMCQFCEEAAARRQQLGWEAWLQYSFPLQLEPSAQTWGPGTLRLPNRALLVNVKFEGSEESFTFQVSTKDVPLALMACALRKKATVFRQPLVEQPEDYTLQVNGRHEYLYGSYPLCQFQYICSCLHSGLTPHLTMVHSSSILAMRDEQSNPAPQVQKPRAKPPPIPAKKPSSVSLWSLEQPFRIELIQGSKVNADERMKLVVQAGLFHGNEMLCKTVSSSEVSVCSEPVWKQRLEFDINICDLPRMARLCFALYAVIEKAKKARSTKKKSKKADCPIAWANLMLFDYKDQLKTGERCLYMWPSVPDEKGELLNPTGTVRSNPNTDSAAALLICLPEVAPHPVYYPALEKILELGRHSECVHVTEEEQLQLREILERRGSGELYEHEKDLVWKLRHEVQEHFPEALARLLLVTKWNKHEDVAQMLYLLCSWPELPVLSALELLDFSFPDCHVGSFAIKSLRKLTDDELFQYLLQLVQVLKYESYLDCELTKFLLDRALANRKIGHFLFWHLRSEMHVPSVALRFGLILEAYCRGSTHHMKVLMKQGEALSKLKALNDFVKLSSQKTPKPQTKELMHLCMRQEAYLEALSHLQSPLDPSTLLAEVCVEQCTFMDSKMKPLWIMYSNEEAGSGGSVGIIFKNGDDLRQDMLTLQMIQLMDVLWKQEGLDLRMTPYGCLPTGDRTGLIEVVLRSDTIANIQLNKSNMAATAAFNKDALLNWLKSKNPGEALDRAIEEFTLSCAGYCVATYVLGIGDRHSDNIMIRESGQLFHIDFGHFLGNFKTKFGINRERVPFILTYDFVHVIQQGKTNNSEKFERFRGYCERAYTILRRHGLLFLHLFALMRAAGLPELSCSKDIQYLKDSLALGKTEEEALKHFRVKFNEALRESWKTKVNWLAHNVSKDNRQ

Row | Structure (SMILES) | IC50 [1] [nM] | IC50 [2] [nM] | IC50 [3] [nM] | IC50 [4] [nM] | IC50 [5] [nM] | IC50 [6] [nM] | inhibition in vivo at 30 mg/kg [7] [%] | inhibition in vivo at 30 mg/kg [8] [%] | IC50 [9] [nM] | IC50 [10] [nM] | IC50 [11] [nM]
1 | Cn1c(=O)n(-c2ccc(C(C)(C)C#N)cc2)c2c3cc(-c4cnc5ccccc5c4)ccc3ncc21 [DACTOLISIB] | 1010 | 910 | 960 | 1090 | 870 | 870 | 53.3 | 51.7 | – | – | –
2 | Cc1nc2cnc3ccc(-c4cnc5[nH]ccc5c4)cc3c2n1-c1ccc(C(C)(C)C#N)cc1 | 310 | 290 | 370 | 190 | 230 | 1080 | – | – | 29.1 | 12.5 | 21.7
3 | CNC(=O)c1ccc(-c2ccc3ncc4nc(C)n(-c5ccc(F)cc5)c4c3c2)cc1 | 9890 | 12700 | > 20000 | > 20000 | > 20000 | > 20000 | – | – | 157 | 195 | 133
4 | Cc1nc2cnc3ccc(-c4ccc(O)cc4)cc3c2n1-c1ccc(F)cc1 | 3360 | 2750 | 3730 | 2160 | 3620 | 7820 | – | – | 244 | 89.2 | 132
5 | Cc1nc2cnc3ccc(-c4cnc5[nH]ccc5c4)cc3c2n1[C@H](C)c1ccccc1 | 1870 | 1430 | 1960 | 2350 | 1650 | 2780 | – | – | 102 | 79.6 | 164
6 | Cc1nc2cnc3ccc(-c4cnc(N)nc4)cc3c2n1-c1ccc(F)cc1 | 1320 | 1970 | 5390 | 2710 | 1930 | 4160 | – | – | 62.1 | 36.7 | 30.4
7 | Cc1nc2cnc3ccc(-c4cnc5[nH]ccc5c4)cc3c2n1-c1ccc(N2CCOCC2)cc1 | 1020 | 1360 | 1080 | 940 | 930 | 1470 | – | – | 114 | 69.3 | 156
8 | Cc1nc2cnc3ccc(-c4cnc5[nH]ccc5c4)cc3c2n1-c1ccc(C(F)(F)F)cc1 | 1250 | 970 | 1030 | 1080 | 1160 | 1390 | – | – | 109 | 47.1 | 66.3
9 | COC(=O)c1ccc(-c2ccc3ncc4nc(C)n(-c5ccc(F)cc5)c4c3c2)cc1 | 18700 | > 20000 | > 20000 | 19800 | > 20000 | > 20000 | – | – | 206 | 251 | 336
